Assays:
Test in all cases: selective drug sensitivity score (sDSS, relative to normal bone marrow) (sDSS (score)); higher = more potent and effective on the cell line relative to normal bone marrow cells
Settings in all cases: 72 h
[1] = system: 380
[2] = system: 697
[3] = system: ALL-SIL
[4] = system: CCRF-HSB2
[5] = system: COG-LL-319h
[6] = system: COG-LL-355h
[7] = system: COG-LL-402h
[8] = system: DND-41
[9] = system: JURKAT
[10] = system: KASUMI-2
[11] = system: KASUMI-9
[12] = system: MHH-CALL-2
[13] = system: MN-60
[14] = system: NALM-16
[15] = system: P12-ICHIKAWA
[16] = system: PEER
[17] = system: PF-382
[18] = system: REH
[19] = system: RPMI-8402
[20] = system: TANOUE
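Further: ALL cell lines in 384-well plates, five doses spanning 10,000-fold, each plate scaled between vehicle and 100 µmol/L benzalkonium chloride controls, sDSS an adapted area-under-curve metric.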

| SMILES | selective drug sensitivity score [1] | selective drug sensitivity score [2] | selective drug sensitivity score [3] | selective drug sensitivity score [4] | selective drug sensitivity score [5] | selective drug sensitivity score [6] | selective drug sensitivity score [7] | selective drug sensitivity score [8] | selective drug sensitivity score [9] | selective drug sensitivity score [10] | selective drug sensitivity score [11] | selective drug sensitivity score [12] | selective drug sensitivity score [13] | selective drug sensitivity score [14] | selective drug sensitivity score [15] | selective drug sensitivity score [16] | selective drug sensitivity score [17] | selective drug sensitivity score [18] | selective drug sensitivity score [19] | selective drug sensitivity score [20] |
| --- | --- | --- | --- | --- | --- | --- | --- | --- | --- | --- | --- | --- | --- | --- | --- | --- | --- | --- | --- | --- |
| CC(O)(CS(=O)(=O)c1ccc(F)cc1)C(=O)Nc1ccc(C#N)c(C(F)(F)F)c1 (stereo not given) [Bicalutamide] (top concentration 10000 nM) | 1.72 | -0.68 | -1.68 | -1.28 | 3.72 | 2.62 | -1.68 | -1.68 | 0.42 | -1.68 | 0.52 | -1.68 | 1.42 | 0.62 | -0.88 | -0.18 | -1.38 | -1.68 | 1.02 | -1.28 |
| COc1cc(Nc2c(C#N)cnc3cc(OCCCN4CCN(C)CC4)c(OC)cc23)c(Cl)cc1Cl [Bosutinib] (top concentration 10000 nM) | -0.64 | 5.86 | 26.7 | 27 | 1.66 | 1.86 | 5.66 | 0.06 | -0.74 | -2.04 | 4.06 | 7.66 | -3.24 | -3.04 | 0.96 | 9.16 | 4.76 | -1.94 | 1.56 | -7.74 |
| Cc1cc2c(F)c(Oc3ncnn4cc(OC[C@@H](C)O)c(C)c34)ccc2[nH]1 [Brivanib] (top concentration 1000 nM) | -0.04 | 0.66 | -0.04 | -0.04 | -0.04 | -0.04 | -0.04 | -0.04 | 1.46 | -0.04 | -0.04 | -0.04 | 2.76 | -0.04 | 1.56 | -0.04 | 0.06 | 0.96 | 0.46 | -0.04 |
| Cc1ccc(-c2cc(C(F)(F)F)nn2-c2ccc(S(N)(=O)=O)cc2)cc1 [Celecoxib] (top concentration 10000 nM) | 7.74 | -0.06 | 0.54 | -0.06 | 0.04 | -0.06 | -0.06 | 1.24 | 0.14 | 7.54 | -0.06 | 0.34 | -0.06 | -0.06 | 0.24 | 0.94 | 0.24 | -0.06 | 0.54 | -0.06 |
| N.N.[Cl][Pt][Cl] [Cisplatin] (top concentration 100000 nM) | 7.54 | 19.7 | 8.94 | 21 | 19.4 | 5.84 | 1.54 | 9.54 | 13.1 | 17.2 | 12.3 | 14.6 | -0.56 | -0.86 | 12.7 | 2.64 | 10.2 | 10.8 | 4.04 | -3.16 |
| Cc1c2oc3c(C)ccc(C(=O)N[C@@H]4C(=O)N[C@H](C(C)C)C(=O)N5CCC[C@H]5C(=O)N(C)CC(=O)N(C)[C@@H](C(C)C)C(=O)O[C@@H]4C)c3nc-2c(C(=O)N[C@@H]2C(=O)N[C@H](C(C)C)C(=O)N3CCC[C@H]3C(=O)N(C)CC(=O)N(C)[C@@H](C(C)C)C(=O)O[C@@H]2C)c(N)c1=O [Dactinomycin] (top concentration 1000 nM) | 17.2 | 19.2 | 8.04 | 15.7 | 5.94 | 8.54 | 15.2 | 11 | 2.64 | 15 | 19.4 | 12.4 | 8.94 | 5.24 | 0.44 | 0.64 | 3.64 | 16.3 | 1.54 | -11.2 |
| O=C(O)CCCCC(CCSCc1ccccc1)SCc1ccccc1 (stereo not given) [Devimistat (CPI-613)] (top concentration 10000 nM) | 1.9 | 0 | 0 | 0.3 | 1.3 | 2.4 | 0 | 0.6 | 0 | 0 | 0 | 0.8 | 0.1 | 0.4 | 0 | 0.1 | 0 | 0 | 0 | 1.8 |
| CC(=O)O[C@@]12CO[C@@H]1C[C@H](O)[C@@]1(C)C(=O)[C@H](O)C3=C(C)[C@@H](OC(=O)[C@H](O)[C@@H](NC(=O)OC(C)(C)C)c4ccccc4)C[C@@](O)([C@@H](OC(=O)c4ccccc4)[C@H]21)C3(C)C [Docetaxel] (top concentration 1000 nM) | 22.4 | 23.4 | 20.6 | 19.3 | 21.2 | 5.1 | 15 | 3.3 | 17.1 | 16.4 | 21 | 18.6 | -1 | 12.3 | 19.1 | 22.3 | 10.5 | 21.1 | 13.2 | -11.8 |
| Cc1ccc(-n2nc(C(C)(C)C)cc2NC(=O)Nc2ccc(OCCN3CCOCC3)c3ccccc23)cc1 [Doramapimod] (top concentration 10000 nM) | -0.24 | 4.96 | -0.24 | 2.76 | 1.06 | 1.26 | 2.66 | -0.24 | 1.16 | -0.24 | 4.56 | 4.56 | 0.66 | 7.06 | 0.26 | 1.86 | 0.46 | 5.36 | 1.96 | 1.16 |

Source: the supplement of paper PMC8967900
